The values that follow come from US8604040B2 (priority 2010, dated 2013).

A short description of this data set: log P by HPLC (EEC Directive 79/831 Annex V.A8). The data set is classed as physicochemical.
Setting [1] is: [b] LC-MS, acidic range, pH 2.7, 0.1% aqueous formic acid and acetonitrile.
The mark [2] stands for this setting: [c] LC-MS, neutral range, pH 7.8, 0.001 molar aqueous ammonium hydrogencarbonate and acetonitrile.
[3] abbreviates: HPLC, pH 2.7, given in the preparation examples, read-out: logP (pH2.7).

For orientation: log P means the decadic logarithm of the partition coefficient of the neutral form, usually between octanol and water. A low value points to a more hydrophilic compound.

Like-named read-outs stand apart in the source and are kept apart here. Marks after values point to notes of the source that are not given here.

For `Cc1cc(C(F)(F)F)nn1CC(=O)N1CCC(c2cccc(C(=O)NC(C)c3ccccc3Cl)n2)CC1` (racemic) [Example 16], the lipophilicity (log P) is on record as 3.82 under setting [1] and 3.75 under setting [2].

As for `CCCCCC(C)NC(=O)c1cccc(C2CCN(C(=O)Cn3nc(C(F)(F)F)cc3C)CC2)n1` (racemic) [Example 17], the “log P” value amounted to 4.17 under setting [1] and 4.13 under setting [2].

With `Cc1cc(C(F)(F)F)nn1CC(=O)N1CCC(c2cccc(C(=O)NC3CCc4ccccc43)n2)CC1` (racemic) [Example 19], the lipophilicity (log P) is 3.56^[b]; 3.56^[c] under setting [1] and 3.56^[b]; 3.56^[c] under setting [2].

Regarding `CCOC(=O)c1cccc(C2=CCN(C(=O)OC(C)(C)C)CC2)n1` [1′-tert-butyl 6-ethyl-3′,6′-dihydro-2,4′-bipyridine-1′,6(2′H)-dicarboxylate], the “logP (pH2.7)” value (pH 2.7, given in the preparation examples) was determined as 3.48.

Regarding `CCOC(=O)c1cccc(C2CCNCC2)n1` [4-[6-(Ethoxycarbonyl)pyridin-2-yl]piperidinium chloride], under setting [3], the chromatographic logP was 0.55.

For the molecule `O=C(O)c1cccc(N2CCN(C(=O)Cn3nc(C(F)F)cc3C(F)F)CC2)n1` [6-(4-{[3,5-Bis(difluoromethyl)-1H-pyrazol-1-yl]acetyl}piperazin-1-yl)pyridine-2-carboxylic acid], the chromatographic logP under setting [3] came out at 0.68.

Regarding `CC(C)(C)OC(=O)N1CCC(c2cccc(C(=O)O)n2)CC1` [6-[1-(tert-Butoxycarbonyl)piperidin-4-yl]pyridine-2-carboxylic acid], the chromatographic logP under setting [3] is 1.78.

In the case of `CCOC(=O)c1cccc(N2CCN(C(=O)Cn3nc(C(F)F)cc3C(F)F)CC2)n1` [Ethyl 6-(4-{[3,5-bis(difluoromethyl)-1H-pyrazol-1-yl]acetyl}piperazin-1-yl)pyridine-2-carboxylate], the chromatographic logP under setting [3] stood at 2.71.

Consider `CCOC(=O)c1cccc(C2CCN(C(=O)OC(C)(C)C)CC2)n1` [Ethyl 6-[1-(tert-butoxycarbonyl)piperidin-4-yl]pyridine-2-carboxylate], for which the chromatographic logP under setting [3] is 3.29.

For `CN(Cc1ccccc1Br)C(=O)c1cccc(C2CCN(C(=O)Cn3nc(C(F)F)cc3C(F)F)CC2)n1` [Example 1], the “log P” value is 3.32 under setting [1] and 3.37 under setting [2].

Regarding `Cc1cc(C(F)(F)F)nn1CC(=O)N1CCC(c2cccc(C(=O)N(C)Cc3ccccc3Br)n2)CC1` [Example 2], the log partition coefficient (log P) reads like this: under setting [1], 3.47; under setting [2], 3.49.

Consider `O=C(NCc1ccccc1Br)c1cccc(C2CCN(C(=O)Cn3nc(C(F)F)cc3C(F)F)CC2)n1` [Example 4], for which the log partition coefficient (log P) reads like this: under setting [1], 3.44; under setting [2], 3.47.

For `Cc1cc(C(F)(F)F)nn1CC(=O)N1CCC(c2cccc(C(=O)NCc3ccccc3Br)n2)CC1` [Example 5], the log partition coefficient (log P) was 3.59^[b]; 3.59^[c] under setting [1] and 3.59^[b]; 3.59^[c] under setting [2].

For the molecule `Cc1cc(C(F)(F)F)nn1CC(=O)N1CCC(c2cccc(C(=O)OCCCC(F)(F)F)n2)CC1` [Example 6], the “log P” value under setting [1] was 3.37^[b].

As for `O=C(OCc1ccccc1OC(F)(F)F)c1cccc(C2CCN(C(=O)Cn3nc(C(F)F)cc3C(F)F)CC2)n1` [Example 7], the lipophilicity (log P) under setting [1] is 3.98^[b].

Take `Cc1cc(C(F)(F)F)nn1CC(=O)N1CCC(c2cccc(C(=O)OCc3ccccc3OC(F)(F)F)n2)CC1` [Example 8]: under setting [1], the “log P” value is 4.06^[b].

As for `O=C(OCc1ccccc1OC(F)(F)F)c1cccc(C2CCN(C(=O)Cn3nc(C(F)F)cc3C(F)F)CC2)n1` [Example 9], the “log P” value under setting [1] is 3.89^[b].

As to `Cc1cc(C(F)(F)F)nn1CC(=O)N1CCC(c2cccc(C(=O)N(C)c3ccccc3Cl)n2)CC1` [Example 10], the lipophilicity (log P) is, setting by setting: under setting [1], 3.18; under setting [2], 3.2.

Regarding `Cc1cc(C(F)(F)F)nn1CC(=O)N1CCC(c2cccc(C(=O)N(C)C3CCCCC3)n2)CC1` [Example 11], the “log P” value is 3.15 under setting [1] and 3.18 under setting [2].

For `Cc1cc(C(F)(F)F)nn1CC(=O)N1CCC(c2cccc(C(=O)N(C)C3CCCc4ccccc43)n2)CC1` (stereo not shown) [Example 12, N-Methyl-6-(1-{[5-methyl-3-(trifluoromethyl)-1H-pyrazol-1-yl]acetyl}piperidin-4-yl)-N-(1,2,3,4-tetrahydronaphthalen-1-yl)pyridine-2-carboxamide], the chromatographic logP (HPLC (LC-MS), [b] LC-MS, acidic range, pH 2.7, 0.1% aqueous formic acid and acetonitrile, read-out: log P) is 3.61; the chromatographic logP under setting [3] amounted to 3.61.

`Cc1cc(C(F)(F)F)nn1CC(=O)N1CCC(c2cccc(C(=O)N(C)Cc3ccc(Cl)cc3Cl)n2)CC1` [Example 13]: the lipophilicity (log P) runs as follows: under setting [1], 3.85^[b]; 3.85^[c]; under setting [2], 3.85^[b]; 3.85^[c].

In the case of `Cc1cc(C(F)(F)F)nn1CC(=O)N1CCC(c2cccc(C(=O)N(C)Cc3ccccn3)n2)CC1` [Example 14], the “log P” value under setting [2] is 2.23^[c].

In the case of `Cc1cc(C(F)(F)F)nn1CC(=O)N1CCC(c2cccc(C(=O)N3CCOc4ccccc43)n2)CC1` [Example 15], the “log P” value reads like this: under setting [1], 3.04^[b]; 3.04^[c]; under setting [2], 3.04^[b]; 3.04^[c].

As to `Cc1cc(C(F)(F)F)nn1CC(=O)N1CCC(c2cccc(C(=O)NC3CCCCC3)n2)CC1` [Example 18], the log partition coefficient (log P) under setting [2] was 3.46^[c].

With `CCCCCCCNC(=O)c1cccc(C2CCN(C(=O)Cn3nc(C(F)(F)F)cc3C)CC2)n1` [Example 20], the log partition coefficient (log P) by setting is: under setting [1], 4.25; under setting [2], 4.24.

In the case of `Cc1cc(C(F)(F)F)nn1CC(=O)N1CCC(c2cccc(C(=O)NCc3ccc(Cl)cc3Cl)n2)CC1` [Example 21], the log partition coefficient (log P) runs as follows: under setting [1], 4.1; under setting [2], 4.

Consider `Cc1cc(C(F)(F)F)nn1CC(=O)N1CCC(c2cccc(C(=O)NCc3ccc(F)cc3F)n2)CC1` [Example 22], for which the log partition coefficient (log P) is 3.36^[b]; 3.36^[c] under setting [1] and 3.36^[b]; 3.36^[c] under setting [2].

With `Cc1cc(C(F)(F)F)nn1CC(=O)N1CCC(c2cccc(C(=O)NCc3ccccc3Cl)n2)CC1` [Example 23], the lipophilicity (log P) came out at 3.49 under setting [1] and 3.52 under setting [2].

As to `Cc1cc(C(F)(F)F)nn1CC(=O)N1CCC(c2cccc(C(=O)NCc3c(F)cccc3F)n2)CC1` [Example 24], the “log P” value under setting [1] amounted to 3.33 and the log partition coefficient (log P) under setting [2] is 3.26.

On to `Cc1cc(C(F)(F)F)nn1CC(=O)N1CCC(c2cccc(C(=O)NCc3ccccn3)n2)CC1` [Example 25], for which the lipophilicity (log P) by setting is: under setting [1], 1.97; under setting [2], 2.44.

On to `Cc1cc(C(F)(F)F)nn1CC(=O)N1CCC(c2cccc(C(=O)NCc3cccs3)n2)CC1` [Example 26], for which the lipophilicity (log P) is on record as 3.15 under setting [1] and 3.1 under setting [2].

As to `Cc1ccsc1CNC(=O)c1cccc(C2CCN(C(=O)Cn3nc(C(F)(F)F)cc3C)CC2)n1` [Example 27], the “log P” value runs as follows: under setting [1], 3.29; under setting [2], 3.34.

In the case of `Cc1cc(C(F)(F)F)nn1CC(=O)N1CCC(c2cccc(C(=O)Nc3c(F)cccc3F)n2)CC1` [Example 28], the “log P” value by setting is: under setting [1], 3.13; under setting [2], 3.15.

On to `Cc1cc(C(F)(F)F)nn1CC(=O)N1CCC(c2cccc(C(=O)Nc3cccc4ccccc34)n2)CC1` [Example 29], for which, under setting [1], the “log P” value was determined as 3.94.

With `Cc1cc(C(F)(F)F)nn1CC(=O)N1CCC(c2cccc(C(=O)Nc3ccc4ccccc4c3)n2)CC1` [Example 30], the “log P” value under setting [1] amounted to 4.09 and the “log P” value under setting [2] stood at 4.11.

Take `Cc1cc(C(F)(F)F)nn1CC(=O)N1CCC(c2cccc(C(=O)Nc3cccc4cccnc34)n2)CC1` [Example 31]: the “log P” value under setting [1] worked out at 4.02 and the “log P” value under setting [2] was found to be 4.04.

Take `Cc1cc(C(F)(F)F)nn1CC(=O)N1CCC(c2cccc(C(=O)OC(C)c3ccccc3Cl)n2)CC1` (stereo not shown) [Example 32]: the lipophilicity (log P) under setting [1] is 4.12^[b].

Regarding `Cc1cc(C(F)(F)F)nn1CC(=O)N1CCC(c2cccc(C(=O)OC3C=CCCC3)n2)CC1` (stereo not shown) [Example 33], under setting [1], the “log P” value was 3.64^[b].

Turning to `Cc1cc(C(F)(F)F)nn1CC(=O)N1CCC(c2cccc(C(=O)OC3CCCCC3)n2)CC1` [Example 34], the “log P” value under setting [1] is 3.9^[b].

For `Cc1cc(C(F)(F)F)nn1CC(=O)N1CCC(c2cccc(C(=O)OC3CCCc4ccccc43)n2)CC1` (stereo not shown) [Example 35], the “log P” value under setting [1] was 4.15^[b].

On to `Cc1cc(C(F)(F)F)nn1CC(=O)N1CCC(c2cccc(C(=O)OCC#Cc3ccccc3Cl)n2)CC1` [Example 36], for which the log partition coefficient (log P) under setting [1] is 4.03^[b].

As for `Cc1cc(C(F)(F)F)nn1CC(=O)N1CCC(c2cccc(C(=O)OCC(C)(C)C)n2)CC1` [Example 37], under setting [1], the “log P” value is 3.86^[b].

On to `Cc1cc(C(F)(F)F)nn1CC(=O)N1CCC(c2cccc(C(=O)OCC3CCCCC3)n2)CC1` [Example 38], for which, under setting [1], the “log P” value is 4.38^[b].

On to `C=CCCCCOC(=O)c1cccc(C2CCN(C(=O)Cn3nc(C(F)(F)F)cc3C)CC2)n1` [Example 39], for which the lipophilicity (log P) under setting [1] was 3.86^[b].

In the case of `CCCCCCCOC(=O)c1cccc(C2CCN(C(=O)Cn3nc(C(F)(F)F)cc3C)CC2)n1` [Example 40], the lipophilicity (log P) under setting [1] is 4.73^[b].

For `COCCOC(=O)c1cccc(C2CCN(C(=O)Cn3nc(C(F)(F)F)cc3C)CC2)n1` [Example 41], the “log P” value under setting [1] was 2.46^[b].

In the case of `Cc1cc(C(F)(F)F)nn1CC(=O)N1CCC(c2cccc(C(=O)OCc3ccc(F)cc3F)n2)CC1` [Example 42], the “log P” value under setting [1] was 3.6^[b].

With `Cc1cc(C(F)(F)F)nn1CC(=O)N1CCC(c2cccc(C(=O)OCc3c(F)cc(F)cc3F)n2)CC1` [Example 43], the “log P” value under setting [1] was 3.69^[b].

For `Cc1ccccc1COC(=O)c1cccc(C2CCN(C(=O)Cn3nc(C(F)(F)F)cc3C)CC2)n1` [Example 44], under setting [1], the “log P” value is 3.8^[b].

As for `Cc1cc(C(F)(F)F)nn1CC(=O)N1CCC(c2cccc(C(=O)OCc3ccccc3C(F)(F)F)n2)CC1` [Example 45], the “log P” value under setting [1] was 3.97^[b].

As to `Cc1cc(C(F)(F)F)nn1CC(=O)N1CCC(c2cccc(C(=O)OCc3ccccc3Cl)n2)CC1` [Example 46], the lipophilicity (log P) under setting [1] was 3.84^[b].

For the molecule `Cc1cc(C(F)(F)F)nn1CC(=O)N1CCC(c2cccc(C(=O)OCc3ccccc3F)n2)CC1` [Example 47], the “log P” value under setting [1] was 3.52^[b].

On to `Cc1cc(C(F)(F)F)nn1CC(=O)N1CCC(c2cccc(C(=O)OCc3c(F)cccc3F)n2)CC1` [Example 48], for which, under setting [1], the log partition coefficient (log P) was 3.51^[b].
